Where “and” joins values, the source holds several entries; their conditions need not be identical. Identical values can stand only once. Blank lines part the entries; values can stand above or below the compound they belong to.
Key:
AF9-DOT1L interaction [1] = biological target: T1, AF9-DOT1L interaction (Homo sapiens, UniProt P42568); experiment: Fluorescence polarization (FP) inhibition assay, AF9-DOT1L; type: binding
T1 construct: cDNA for human AF9 AHD domain (475-568) and ENL AHD domain (489-559) was synthesized; made in house; host or cells: E. coli BL21(DE3)
T1 sequence (P42568 475-568): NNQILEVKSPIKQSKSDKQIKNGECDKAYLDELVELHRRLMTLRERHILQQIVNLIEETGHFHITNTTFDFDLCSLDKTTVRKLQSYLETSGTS
Source text: (§1) We developed an Alpha (amplified luminescent proximity homogeneous assay) assay to determine the binding and inhibition of the PPI between maltose-binding protein (MBP)-tagged AF9 AHD and a biotin-labeled DOT1L peptide, using AlphaLisa streptavidin donor beads and anti-MBP acceptor beads. Laser excitation to the donor beads generates singlet oxygen radicals, which can travel for <200 nm in solution and cannot reach the free acceptor beads. The PPI brings the DOT1L coated donor beads and AHD coated acceptor beads together, allowing the radicals to activate the acceptor beads and produce luminescence. […] We also developed a fluorescence polarization (FP) assay. A fluorescein-labeled DOT1L peptide has a higher freedom in solution with a lower polarization value.
Fluorescence polarization assay. It was performed in 96-well black microplates with each well containing a Fluorescein-labeled peptide (2 nM) and increasing concentration of a AF9/ENL protein in a buffer (20 mM HEPES, pH 7.5, 0.01% Triton X-100, 100 µL) for Kd determination. For IC50 determination, a Fluorescein-labeled peptide (2 nM), AF9/ENL protein (100 nM) and increasing concentration of a compound in the same buffer were placed in each well. Upon incubation of 1h, the FP value of each well was determined using a Tecan SPARK microplate reader. Data were similarly processed to obtain Kd or IC50 values.

AF9-DOT1L interaction [2] = biological target: T1, AF9-DOT1L interaction; experiment: Alpha assay, AF9 AHD-DOT1L peptide interaction; type: binding; settings: read-out: IC50, inhibition of AF9-DOT1L interaction
Source text: as §1
Alpha assays. Alpha assays were developed using Perkin-Elmer AlphaLisa anti-MBP kit, which contains streptavidin donor beads and anti-MBP acceptor beads. The assay was performed using a MBP-protein (5 nM), a biotinylated peptide (40 nM), and increasing concentrations of a compound in 25 µL buffer (PBS with 0.5 % BSA, pH 7.5) in 384-well plates according to the manufacturer's protocol and measured with a Tecan SPARK microplate reader. Data were imported into Prism (version 5.0), and IC50 values from 3 independent experiments with standard deviation were obtained by using a standard dose-response curve fitting.

RPMI-8226 cells = experiment: Antiproliferation assay (XTT); type: cell-based; settings: Homo sapiens, 168 h, 7-day incubation, read-out: Cytotoxicity EC50
Procedure: (§2) Antiproliferation assay. Proliferation inhibition assays for suspension blood cancer cells were performed using an XTT assay kit (Roche). Proliferation inhibition assays for solid tumor cell lines MCF-7, MDA-MB-231, Panc1, Panc28 were performed using an MTT assay (Sigma). The antiproliferation EC50 values were determined using Prism 5 and the reported results were the mean values of at least three independent experiments. The incubation time for compound 1 was 7 days and that for EPZ4777 was 14 days.

U266 cells = experiment: Antiproliferation assay (XTT); type: cell-based; settings: Homo sapiens, U-266, 168 h, 7-day incubation, read-out: Cytotoxicity EC50
Procedure: as §2

HL60 cells = experiment: Antiproliferation assay (XTT); type: cell-based; settings: Homo sapiens, HL-60, 168 h, 7-day incubation, read-out: Cytotoxicity EC50
Procedure: as §2

Kasumi-1 cells = experiment: Antiproliferation assay (XTT); type: cell-based; settings: Homo sapiens, 168 h, 7-day incubation, read-out: Cytotoxicity EC50
Procedure: as §2

THP-1 cells = experiment: Antiproliferation assay (XTT); type: cell-based; settings: Homo sapiens, 168 h, 7-day incubation, read-out: Cytotoxicity EC50
Procedure: as §2

MV4;11 cells = experiment: Antiproliferation assay (XTT); type: cell-based; settings: Homo sapiens, 168 h, 7-day incubation, read-out: Cytotoxicity EC50
Procedure: as §2

Molm-13 cells = experiment: Antiproliferation assay (XTT); type: cell-based; settings: Homo sapiens, 168 h, 7-day incubation, read-out: Cytotoxicity EC50
Procedure: as §2

Jurkat cells = experiment: Antiproliferation assay (XTT); type: cell-based; settings: Homo sapiens, 168 h, 7-day incubation, read-out: Cytotoxicity EC50
Procedure: as §2

[3] = biological target: T2, AF9 AHD bound to DOT1L-coated beads (Homo sapiens, UniProt P42568); experiment: Western blot based pull-down assay; type: binding; settings: increasing concentrations
T2 construct: cDNA for human AF9 AHD domain (475-568) and ENL AHD domain (489-559) was synthesized; made in house; host or cells: E. coli BL21(DE3)
Procedure: A non-optical pull-down assay was used to further validate compound 1. DOT1L-coated beads were incubated with AF9 AHD in the presence of increasing concentrations of 1.
Western blot based pull-down assay. Biotinylated DOT1L peptide (0.25 mg/mL) was incubated with streptavidin agarose beads in PBS containing 0.1% Triton X-100 (400 µL) for 3h to yield, after washing, DOT1L-coated beads. MBP-AF9 AHD (0.2 µM, 40 µL) was pre-incubated with a compound for 30 min before adding to the beads. After 6 hours incubation at 4 °C, the beads were collected, thoroughly washed, and subjected to SDS-PAGE and analyzed by Western blot using an MBP Mouse mAb (#2396, Cell signaling).

[4] = test system: HoxA9, Meis1 and Myc expression in MV4;11 cells; experiment: qPCR of MLL target genes; type: cell-based; settings: 4 days
Procedure: (§3) Next, compound 1 was tested for its ability to change expression of characteristic MLL-r leukemia genes HoxA9, Meis1 and Myc. Myc is also overexpressed in a broad range of AML and other cancers. […] (Figure S5), presumably because SEC is not recruited there.
(§4) RNA extraction and Quantitative real-time PCR (qPCR). 10^5 cells/ml were incubated with a compound for 4 days and the RNA was extracted using RNeasy mini kit (#74104, Qiagen). 100-1000 ng of total RNA was reverse transcribed using iScript™ Reverse Transcription Supermix (Bio-Rad) using the manufacturer's protocol. Quantitative real-time PCR was carried out using Fast SYBR Green Master Mix (Applied Biosystems) according to the manufacturer's instructions. Measurements were performed in triplicate, using GAPDH as the reference gene. Real-time PCR was performed using Biosystems Step One Plus detection system. The following sequences of primers are used: […]

[5] = test system: HoxA9, Meis1 and Myc expression in Molm-13 cells; experiment: qPCR of MLL target genes; type: cell-based; settings: 4 days
Procedure: as §3, §4

cancer cells = experiment: Antiproliferation assays, cancer cell panel; type: cell-based; settings: all cancer cells tested; read-out: EC50 against proliferation
Procedure: The differential antiproliferation activities of compound 1 is consistent with its ability to suppress DOT1L/H3K79 methylation and SEC regulated gene expression, which are critical to MLL-r leukemia and Myc-driven blood cancer, but largely dispensable to other solid tumor cells.
as §2

MDA-MB-231 cells = experiment: Antiproliferation assay (MTT); type: cell-based; settings: Homo sapiens, 168 h, 7-day incubation, read-out: Cytotoxicity EC50
Procedure: as §2

MCF-7 cells = experiment: Antiproliferation assay (MTT); type: cell-based; settings: Homo sapiens, MCF7, 168 h, 7-day incubation, read-out: Cytotoxicity EC50
Procedure: as §2

Panc-28 cells = experiment: Antiproliferation assay (MTT); type: cell-based; settings: 168 h, 7-day incubation, read-out: Cytotoxicity EC50
Procedure: as §2

Panc-1 cells = experiment: Antiproliferation assay (MTT); type: cell-based; settings: Homo sapiens, 168 h, 7-day incubation, read-out: Cytotoxicity EC50
Procedure: as §2

Beads-bound AF9 AHD in pull-down (Western blot) [3]: cannot | EC50 (cancer cells): > 50 µM | IC50 (AF9-DOT1L interaction [2]): > 50 µM
SMILES: O=C(NC1CCNCC1)c1cn(-c2ccc(-c3cn[nH]c3)cc2)c(-c2ccccc2)n1 [Compound 3]
EC50 (RPMI-8226 cells): > 50 µM | EC50 (U266 cells): > 50 µM | EC50 (HL60 cells): > 50 µM | EC50 (Kasumi-1 cells): > 50 µM | EC50 (THP-1 cells): > 50 µM | EC50 (MV4;11 cells): > 50 µM | EC50 (Molm-13 cells): > 50 µM | EC50 (Jurkat cells): > 50 µM | Expression of MLL target genes HoxA9, Meis1 and Myc [4]: had no activity | Expression of MLL target genes HoxA9, Meis1 and Myc [5]: had no activity | EC50 (MDA-MB-231 cells): > 50 µM | EC50 (MCF-7 cells): > 50 µM | EC50 (Panc-28 cells): > 50 µM | EC50 (Panc-1 cells): > 50 µM

IC50 (AF9-DOT1L interaction [2]): 24.8 µM
SMILES: CC(C)(C)c1ccc(-n2cc(C(=O)NC3CCNCC3)nc2C2CCCCC2)cc1 [Compound 4]

IC50 (AF9-DOT1L interaction [2]): 7.8 µM
SMILES: CC(C)c1nc(C(=O)NC2CCNCC2)cn1-c1ccc(C(C)(C)C)cc1 [Compound 5]

IC50 (AF9-DOT1L interaction [2]): > 50 µM
SMILES: Cc1nc(C(=O)NC2CCNCC2)cn1-c1ccc(C(C)(C)C)cc1 [Compound 6]

Further lines, the compound ahead of its results:

SMILES: CC(C)(C)c1ccc(-c2ccc(-n3cc(C(=O)NC4CCNCC4)nc3-c3ccccc3)cc2)cc1 [Compound 2]
IC50 (AF9-DOT1L interaction [1]): ~25 µM | IC50 (AF9-DOT1L interaction [2]): 26.5 µM and ~25 µM

SMILES: CC(C)(C)c1ccc(-n2cc(C(=O)Nc3ccncc3)nc2-c2ccccc2)cc1 [Compound 7]
IC50 (AF9-DOT1L interaction [2]): 22.7 µM
